Measured values published in patent publication US8673907B2, “Pharmaceutically acceptable salts of methyl (3-{ [[3-(6-amino- 2-butoxy-8-oxo-7,8-dihydro-9H-purin-9-yl) propyl] (3-morpholin-4-ylpropyl) amino] methyl }phenyl) acetate and their use in therapy” (AstraZeneca AB, priority 2007, dated 2014).

Experiments:
Type in all cases: physicochemical
[1] = Particle size measurement by laser diffraction (Malvern Scirocco) after micronisation; settings: after jet milling; pressure 4 bar (comparison) or 1.5 bar (salts)
Procedure: Particle size reduction (micronisation) was performed in a jet mill in which pressurised gas was used to make the substance particles collide at high speed in order to effect particle size reduction. Particle size measurements were performed with laser diffraction using a Malvern Scirocco instrument.

[2] = Particle size reduction (micronisation) in 2" Spiral Jet Mill; settings: for Yield (micronisation): constant flow feed, venturi 5 bar, grind 1-2 bar
Procedure: Particle size reduction using a 2″ Spiral Jet Mill (SJM) was carried out on the following three test substances: the monohydrochloride salt according to Example 1 (invention salt), the dimaleate salt according to Example 3 (invention salt) and the free base compound, methyl (3-{[[3-(6-amino-2-butoxy-8-oxo-7,8-dihydro-9H-purin-9-yl)propyl](3-morpholin-4-ylpropyl)amino]methyl}phenyl)acetate (comparison compound).
A sieved batch of test substance was fed into the jet mill chamber, via a venturi feed system, by a vibratory feeder. Micronisation was achieved by particle collisions brought about by compressed gas (nitrogen) forced through angled nozzles in the jet mill chamber. Particles of different sizes develop different speeds and momentum and as the particle size is reduced the particles spiral towards the centre of the jet mill and exit via an exhaust into a collection bin. The process parameters that control the particle size, in addition to the inherent properties of the compound to be micronised, are the feed rate, grinding pressure and venturi pressure and these are summarised in Table I following.

[3] = Measurement of fine particle fraction (FPF) with Next Generation Impactor and HPLC; settings: for Delivered amount: 60 liters/min for 2 seconds; for FPF (% < 5 μm/delivered dose), Average over NGI's: average of NGI1 and NGI2
Procedure: Measurement of FPF, starting from substance as received, was carried out according to the following series of steps:
Doses of 1-2 mg were weighed manually (without scraping) into the cavities of a prototype inhaler (see below). Two experiments were run for each test substance and two doses were used in each experiment and, thus, in total, four doses of each test substance were used in the experiments. The samples were dried in nitrogen gas atmosphere overnight before conducting the experiments.
The Next Generation Impactor, NGI, was used for the fine particle assessment. […] Two NGI impactors were used, one per experiment.
A simple prototype inhaler was used for the tests, consisting of an L-shaped cylindrical channel, comprising a vertical component and a horizontal component. The prototype inhaler was fitted via an USP-inlet to the NGI impactor. The micronised powder was transferred through the vertical channel into the bend of the prototype inhaler, (i.e. the bend of the L-shaped channel).
Each dose of 1-2 mg of powder was drawn with an airflow of 60 liters/min for 2 seconds (measured at the entrance of the induction port), entraining the powder located in the bend, and the aerosol thereafter moved through the horizontal component of the channel, through a spiral mouthpiece and into the NGI impactor.
The withdrawal and collection of the drug powders was performed in an isolator (glove) box with a relative humidity level below 2%.
The FPF's, as defined in the pharmacopoeia references above, were calculated.

Compound | d(0.1) [1] [μm] | d(0.5) [1] [μm] | d(0.9) [1] [μm] | Micronisation behaviour (build-up/blocking of mill) [2] | Yield (micronisation) [2] [%] | Amount particles < 5 μm, extrapolated ([3]; NGI1) [µg] | Collected in stage 3-8 (<4.5 μm) ([3]; NGI1) [µg] | FPF (% < 5 μm/delivered dose) ([3]; NGI1) [%] | Delivered amount ([3]; NGI1) [µg] | Amount particles < 5 μm, extrapolated ([3]; NGI2) [µg] | Collected in stage 3-8 (<4.5 μm) ([3]; NGI2) [µg] | FPF (% < 5 μm/delivered dose) ([3]; NGI2) [%] | Delivered amount ([3]; NGI2) [µg] | FPF (% < 5 μm/delivered dose), Average over NGI's [3] [%]
CCCCOc1nc(N)c2[nH]c(=O)n(CCCN(CCCN3CCOCC3)Cc3cccc(CC(=O)OC)c3)c2n1 [Comparison compound, methyl (3-{[[3-(6-amino-2-butoxy-8-oxo-7,8-dihydro-9H-purin-9-yl)propyl](3-morpholin-4-ylpropyl)amino]methyl}phenyl)acetate, reference compound] | 0.6 | 1.7 | 4.1 | the mill became plugged | 1.7 | 139 | 131 | 19.3 | 720 | 189 | 178 | 13.6 | 1396 | 16.4
CCCCOc1nc(N)c2[nH]c(=O)n(CCCN(CCCN3CCOCC3)Cc3cccc(CC(=O)OC)c3)c2n1.O=C(O)/C=C\C(=O)O.O=C(O)/C=C\C(=O)O [Dimaleate salt, methyl (3-{[[3-(6-amino-2-butoxy-8-oxo-7,8-dihydro-9H-purin-9-yl)propyl](3-morpholin-4-ylpropyl)amino]methyl}phenyl)acetate dimaleate] | – | – | – | readily micronised | 48 | – | – | – | – | – | – | – | – | –
Br.CCCCOc1nc(N)c2[nH]c(=O)n(CCCN(CCCN3CCOCC3)Cc3cccc(CC(=O)OC)c3)c2n1 [Monohydrobromide, methyl (3-{[[3-(6-amino-2-butoxy-8-oxo-7,8-dihydro-9H-purin-9-yl)propyl](3-morpholin-4-ylpropyl)amino]methyl}phenyl)acetate monohydrobromide] | 0.8 | 1.9 | 4.1 | – | – | 332 | 319 | 29.6 | 1123 | 427 | 414 | 43.8 | 975 | 36.7
CCCCOc1nc(N)c2[nH]c(=O)n(CCCN(CCCN3CCOCC3)Cc3cccc(CC(=O)OC)c3)c2n1.Cl [Monohydrochloride, methyl (3-{[[3-(6-amino-2-butoxy-8-oxo-7,8-dihydro-9H-purin-9-yl)propyl](3-morpholin-4-ylpropyl)amino]methyl}phenyl)acetate monohydrochloride] | 0.9 | 1.8 | 3.5 | readily micronised | 85 | 393 | 383 | 31.3 | 1257 | 402 | 392 | 40.6 | 992 | 35.9
